Assay results published in a melting point compilation (Tetko et al.; mined from patent text by program, amines drawn as free bases though some values may be those of a salt).

| SMILES | melting point [°C] |
| --- | --- |
| CCN1CCCC(CC)(c2ccc(Nc3ncc4ccc(-c5ccccc5N(C)S(C)(=O)=O)n4n3)cc2)C1 (centres undefined) | 93 to 101 |
| COc1ccc(C=Cc2ccc(CBr)cc2)cc1 | 147 to 148 |
| CCCCCCCCCCCCCCCCNc1ccc(C(=O)O)cc1 | 104 to 107 |
| CN(C)C=C(C#N)C(=O)Nc1ccccc1Cl | 122 to 123 |
| CC1CN(Cc2ccccc2)CC(NC(=O)c2n[nH]c3ccccc23)CN1C (centres undefined) | 162 to 163 |
| COc1ccc(C(=O)Nc2ccccc2)c(NS(=O)(=O)c2ccc([N+](=O)[O-])cc2)c1 | 224 to 227 |
| COc1ccc(-c2nn(C(C)c3oc4ccccc4c(=O)c3-c3cccc(F)c3)c3ncnc(N)c23)cc1OC (centres undefined) | 232 to 235 |
| C=C(C)C(=O)c1nc(S(=O)C(C)C)n(-c2ccc(CC)cc2)c1Cl (centres undefined) | 83 to 84 |
| CCCc1nnc(N2CCN(c3ccc(N4CC(CNC(C)=O)OC4=O)cc3F)CC2)s1 (centres undefined) | 208 to 209 |
| CC(C)OC(=O)C(C(=O)O)=C1SCS1 | 123 to 124 |
| CC1=C(C(=O)O)CCC(C)(C)C1 | 108 to 110 |
| CCCOc1ccc(F)cc1OCCN1C(=O)c2ccccc2C1=O | 102 to 103 |
| CN(C)C1CCCN(C(=O)c2ccc(-c3[nH]nc4c3C(=O)c3c(NC(=O)NN5CCOCC5)cccc3-4)s2)C1 (centres undefined) | > 300 |
| CC(C)C1OP(N(CCCCCCN(C2CC(C)(C)NC(C)(C)C2)P2OCC(C)(C)C(C(C)C)O2)C2CC(C)(C)NC(C)(C)C2)OCC1(C)C (centres undefined) | 95 to 97 |
| CN(C(=O)C1(C(=O)O)CC1)c1ccc(Cl)cc1 | 156 to 158 |
| OCCN1CCN(C(c2ccccc2)(c2ccccc2)c2ccccc2)CC1 | 82 |
| NS(=O)(=O)c1cc(C(=O)O)cc([N+](=O)[O-])c1Oc1ccc(OCc2ccccc2)cc1 | 247 |
| CCOC(=O)c1cnc2c(cnn2CC)c1O | 85 to 87 |
| COc1nc2cc(F)cc(CBr)c2nc1OC | 122 to 125 |
| Fc1ccc(CCCC(c2ccc(F)cc2)c2c[nH]cn2)cc1 (centres undefined) | 135 to 137 |

| SMILES | melting point [°C] |
| --- | --- |
| CCOC(=O)c1c(C(C)(C)C)oc(-c2ccccc2)c1-c1ccc(F)cc1 | 93 to 94 |
| Cc1ccc(O)c(Cn2ccnc2)n1 | 153 to 155 |
| CCCC(=O)Nc1ccc2c(c1)C(=O)c1cc(NC(=O)CCC)ccc1C2=O | 275 |
| O=C1NC(=O)C(Cc2ccc(OCC3CCN(C(=O)OCc4ccccc4)CC3)cc2)S1 (centres undefined) | 54 to 56 |
| CCOC(=O)c1cc2n(c1)CN(CCC#N)c1c(OC)cccc1-2 | 146 to 147 |
| CN(Cc1ccccc1)C(=O)c1cnc2c3c(c(F)cc2c1)C(=O)C(C(=O)O)C=N3 (centres undefined) | 168 to 171 |
| O=C(NO)c1ccc(OC/C=C/COc2ccc(C(=O)NO)cc2)cc1 | 205 to 210 |
| Cc1ccc(S(=O)(=O)OC2CCc3[nH]c4ccc(C)cc4c3C2)cc1 (centres undefined) | 125 to 127 |
| Brc1cc2c(cn1)[nH]c1ccccc12 | 300 |
| CCCCC1Cc2c(c3cccnc3n(-c3ccc(C)cc3)c2=O)O1 (centres undefined) | 282 to 284 |
| CC1(C)CCC(C)(C)c2cc(-c3cccc(C#CC(=O)O)c3)ccc21 | 164 to 165 |
| Cc1ccc2c(c1)oc1c(C(=O)O)nn(-c3ccc(Cl)cc3Cl)c12 | 228 to 230 |
| CC(C)CCOc1c(-c2ccc(S(C)(=O)=O)cc2)cnn(-c2cccc(Cl)c2)c1=O | 134 to 135 |
| Cc1sc(N2CCCCC2)nc1C=Cc1cn(-c2ccccc2)nc1O | 224 to 226 |
| O=C(O)COC1c2ccccc2COc2ccc(/C=C/c3ccc4cc(F)c(F)cc4n3)cc21 (centres undefined) | 206 to 208 |
| CCCCCCCCCCC/C=C/c1ccc(C=CC(=O)O)cc1 | 107 |
| NC(=O)c1cnn2c1NCCC2c1cccc(C(F)(F)F)c1 (centres undefined) | 152 to 154 |
| CCn1c(=O)c2[nH]c(/C=C/c3ccc(OC)c(OC)c3OC)nc2n(CC)c1=O | 276 to 277 |
| O=c1[nH]c(=O)n(Cc2cccc(OCc3noc(-c4ccccc4)n3)c2)o1 | 133 to 134 |
